Test results: ChEMBL document CHEMBL5634128, “Development of chalcone-like derivatives and their biological and mechanistic investigations as novel influenza nuclear export inhibitors” (Eur J Med Chem, 2023)
Activity calls are given as the source filed them. No cut-off for these calls is given here.

What was measured:
[1] = system: Influenza A virus; test: Anti-influenza activity against Influenza A virus A/Goose/Guangdong/SH7/2013 (H5N1) infected in chicken embryo fibroblast assessed as inhibition of virus-induced cytopathic effect; type: functional
[2] = Cytotoxicity against chicken embryo fibroblast cells assessed as reduction in cell growth at 50 uM by CCK-8 assay relative to control; type: toxicity, cell-based, Gallus gallus; conditions: chicken embryo fibroblast cells, read-out: Activity
[3] = system: Influenza A virus; test: Anti-influenza activity against Influenza A virus H5N1 infected in chicken embryo fibroblast assessed as reduction in viral growth; type: functional, organism-based
[4] = system: Influenza A virus; test: Anti-influenza activity against Influenza A virus pdm09 infected in chicken embryo fibroblast assessed as reduction in viral growth; type: functional, organism-based
[5] = system: Influenza A virus; test: Anti-influenza activity against Influenza A virus A/Goose/Guangdong/SH7/2013 (H5N1) infected in chicken embryo fibroblast at MOI 1 assessed as decrease in ratio of cytoplasmic to nuclear NP level at 10 uM measured after 10 hr post infection by Western blot analysis; type: functional, organism-based
[6] = Cytotoxicity against chicken embryo fibroblast cells assessed as reduction in cell growth by CCK-8; type: toxicity, cell-based, Gallus gallus
[7] = Binding affinity to influenza A virus NS2 assessed as dissociation constant by SPR analysis
[8] = system: Influenza A virus; test: Anti-influenza activity against Influenza A virus H5N8 infected in chicken embryo fibroblast assessed as reduction in viral growth; type: functional, organism-based
[9] = system: Influenza A virus; test: Anti-influenza activity against Influenza A virus A/Goose/Guangdong/SH7/2013 (H5N1) infected in chicken embryo fibroblast at MOI 1 assessed as reduction in NP expression in cytoplasm at 10 uM measured after 10 hr post infection by Western blot analysis; type: functional, organism-based
[10] = target: Nucleoprotein (Influenza A virus (strain A/Wilson-Smith/1933 H1N1), UniProt P15682); test: Binding affinity to influenza A virus Nucleoprotein assessed as dissociation constant by SPR analysis
[11] = system: Influenza A virus; test: Anti-influenza activity against Influenza A virus A/PR/8/34 infected in chicken embryo fibroblast assessed as reduction in viral growth; type: functional, organism-based; conditions: A/PR/8/34, Fibroblast
[12] = system: Influenza A virus; test: Anti-influenza activity against Influenza A virus B/Victoria infected in chicken embryo fibroblast assessed as reduction in viral growth; type: functional, organism-based
[13] = target: Exportin-1 (Homo sapiens) (UniProt O14980); test: Inhibition of CRM1-mediated nuclear export in human A549 cells assessed as distribution of GFP-tagged AID in cytoplasm at 20 uM administered for 12 hrs and measured after 24 hrs by fluorescence microscopy analysis; type: cell-based
[14] = system: Influenza A virus; test: Anti-influenza activity against Influenza A virus A/Brisbane/10/2007 infected in chicken embryo fibroblast assessed as reduction in viral growth; type: functional, organism-based; conditions: A/Brisbane/10/2007, Fibroblast
[15] = system: Influenza A virus; test: Anti-influenza activity against Influenza A virus A/Goose/Guangdong/SH7/2013 (H5N1) infected in chicken embryo fibroblast at MOI 1 assessed as distribution of NP in nucleus at 10 uM measured after 10 hr post infection by DAPI staining based assay; type: functional, organism-based
[16] = target: Exportin-1 (Homo sapiens) (UniProt O14980); test: Inhibition of CRM1-mediated nuclear export in human A549 cells assessed as distribution of GFP-tagged AID in nucleus at 20 uM administered for 12 hrs and measured after 24 hrs by fluorescence microscopy analysis; type: cell-based; conditions: time 36.0 hrs
[17] = system: Influenza A virus; test: Anti-influenza activity against Influenza A virus B/Yamagata infected in chicken embryo fibroblast assessed as reduction in viral growth; type: functional, organism-based
[18] = Binding affinity to influenza A virus M1 assessed as dissociation constant by SPR analysis
[19] = system: Influenza A virus; test: Anti-influenza activity against Influenza A virus A/Goose/Guangdong/SH7/2013 (H5N1) infected in chicken embryo fibroblast at MOI 1 assessed as reduction in NP expression in nucleus at 10 uM measured after 10 hr post infection by Western blot analysis; type: functional, organism-based
[20] = target: Single-stranded DNA cytosine deaminase (Homo sapiens) (UniProt Q9GZX7); test: Induction of GFP-tagged AID degradation in human A549 cells at 20 uM; type: cell-based
Chain of Single-stranded DNA cytosine deaminase (Homo sapiens) (Q9GZX7 whole entry): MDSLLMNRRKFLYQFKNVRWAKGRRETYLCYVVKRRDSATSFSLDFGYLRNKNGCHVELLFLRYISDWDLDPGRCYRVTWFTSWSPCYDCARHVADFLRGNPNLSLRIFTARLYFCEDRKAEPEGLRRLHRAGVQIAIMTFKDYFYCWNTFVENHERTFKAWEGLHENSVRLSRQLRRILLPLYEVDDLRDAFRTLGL

Chain of Exportin-1 (Homo sapiens) (O14980 whole entry): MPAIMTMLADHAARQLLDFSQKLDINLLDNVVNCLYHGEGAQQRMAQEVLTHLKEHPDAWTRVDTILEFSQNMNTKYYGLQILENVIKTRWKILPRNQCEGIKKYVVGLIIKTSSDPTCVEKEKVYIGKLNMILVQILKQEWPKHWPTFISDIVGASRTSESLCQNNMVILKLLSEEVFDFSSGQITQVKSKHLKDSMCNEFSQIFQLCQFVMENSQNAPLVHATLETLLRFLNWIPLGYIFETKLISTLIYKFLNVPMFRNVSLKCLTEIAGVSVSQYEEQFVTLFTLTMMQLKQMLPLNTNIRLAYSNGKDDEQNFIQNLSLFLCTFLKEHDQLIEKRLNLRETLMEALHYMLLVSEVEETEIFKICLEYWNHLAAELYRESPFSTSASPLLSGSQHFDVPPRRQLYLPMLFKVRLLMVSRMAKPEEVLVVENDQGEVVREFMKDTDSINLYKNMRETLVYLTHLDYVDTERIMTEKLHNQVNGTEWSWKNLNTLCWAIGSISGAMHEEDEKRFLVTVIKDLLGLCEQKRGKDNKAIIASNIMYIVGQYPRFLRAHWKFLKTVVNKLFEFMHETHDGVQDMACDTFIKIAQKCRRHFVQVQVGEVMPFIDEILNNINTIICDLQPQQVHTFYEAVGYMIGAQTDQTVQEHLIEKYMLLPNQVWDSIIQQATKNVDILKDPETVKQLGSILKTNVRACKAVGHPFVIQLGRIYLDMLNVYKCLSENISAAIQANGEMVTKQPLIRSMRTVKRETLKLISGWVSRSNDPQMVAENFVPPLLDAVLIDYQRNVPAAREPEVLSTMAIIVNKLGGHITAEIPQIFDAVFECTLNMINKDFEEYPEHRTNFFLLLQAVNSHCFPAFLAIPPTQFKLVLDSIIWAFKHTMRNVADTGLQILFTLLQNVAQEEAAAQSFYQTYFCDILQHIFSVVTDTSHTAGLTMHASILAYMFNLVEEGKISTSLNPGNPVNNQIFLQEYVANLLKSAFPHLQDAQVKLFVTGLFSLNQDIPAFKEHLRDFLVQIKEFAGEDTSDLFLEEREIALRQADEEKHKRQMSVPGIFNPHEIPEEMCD
Chain of Nucleoprotein (P15682 whole entry): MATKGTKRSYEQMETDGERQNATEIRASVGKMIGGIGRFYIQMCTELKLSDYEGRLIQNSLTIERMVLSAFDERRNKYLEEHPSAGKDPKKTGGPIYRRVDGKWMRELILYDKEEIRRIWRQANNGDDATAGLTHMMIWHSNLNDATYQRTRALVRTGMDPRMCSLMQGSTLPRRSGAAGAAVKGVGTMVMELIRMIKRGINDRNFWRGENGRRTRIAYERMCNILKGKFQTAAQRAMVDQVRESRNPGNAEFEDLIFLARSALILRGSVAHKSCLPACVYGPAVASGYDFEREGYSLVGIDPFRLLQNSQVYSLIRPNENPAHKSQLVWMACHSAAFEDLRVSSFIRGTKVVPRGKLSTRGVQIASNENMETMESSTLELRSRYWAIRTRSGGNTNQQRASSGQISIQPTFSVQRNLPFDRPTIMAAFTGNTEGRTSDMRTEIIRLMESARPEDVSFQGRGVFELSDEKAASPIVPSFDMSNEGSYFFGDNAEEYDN

SMILES	inhibition (INH) [1] [%]	percent cell viability relative to control at 50 µM [2] [%]	also measured
COc1cccc(OC)c1/C=C1\CCC/C(=C\c2nc(C)c(C)nc2C)C1=O	57.06	72.4	
COc1cccc(OC)c1/C=C/C(=O)/C=C/c1ccc(-c2ccccc2)cc1	51.69	104	
COc1cccc(OC)c1/C=C/C(=O)/C=C/c1ccc(N2CCN(C)CC2)cc1	57.74	94.7	
COc1cccc(OC)c1/C=C/C(=O)/C=C/c1ccc(-n2ccnc2C)cc1	28.99	61	
COc1cccc(OC)c1C(=O)C1OC1c1ccc(C(C)(C)C)cc1 (centres undefined)	28.99	85.8	
COc1cccc(OC)c1C(=O)N/N=C/c1ccc(C(C)(C)C)cc1	38.93	57.7	
COc1cccc(OC)c1/C=C1\CCC/C(=C\c2ccc([N+](=O)[O-])cc2)C1=O	48.07	66.9	
COc1cc(/C=C/C(=O)/C=C/c2c(OC)cccc2OC)ccc1-c1ccccc1	54.77	126	
COc1cccc(OC)c1/C=C1\CCC/C(=C\c2ccc(C(C)(C)C)cc2)C1=O	57.57	61.1	
COc1cccc(OC)c1/C=C/C(=O)/C=C/c1ccc(-c2ccccc2)cc1C	23.04	110	
COc1cccc(OC)c1/C=C/C(=O)/C=C/c1ccc(-c2nccs2)cc1	60.3	106	
COc1cccc(OC)c1/C=C1\CCC/C(=C\c2ccc(C)cc2)C1=O	46.7	67.2	
COc1cccc(OC)c1C(=O)CCc1ccc(C)cc1	29.55	65	
COc1cccc(OC)c1C(=O)C1OC1c1nc(C)c(C)nc1C (centres undefined)	5.53	64.6	
COc1cccc(OC)c1/C=C/C(=O)/C=C/c1cccc(N2CCOCC2)c1	71.53	69.5	
COc1cccc(OC)c1C(=O)CCc1ccc(C(C)(C)C)cc1	13.17	96.4	
COc1cccc(OC)c1/C=C/C(=O)/C=C/c1nc(C)c(C)nc1C	71.53	83.8	
COc1cccc(OC)c1C(=O)N/N=C/c1ccc([N+](=O)[O-])cc1	50.3	71.7	
COc1cccc(OC)c1/C=C/C(=O)/C=C/c1ccc(N2CCOCC2)cc1	96.62	102	EC50 [3]: 14.9 µM; EC50 [4]: 4.56 µM; Activity [5]: Active; CC50 [6]: > 100 µM; Kd [7]: Not Active; EC50 [8]: 9.6 µM; Activity [9]: Active; Kd [10]: 0.239 µM; EC50 [11]: 7.31 µM; EC50 [12]: 3.13 µM; inhibition [13]: inactive; EC50 [14]: 3.69 µM; Activity [15]: Active; inhibition [16]: inactive; EC50 [17]: 4.82 µM; Kd [18]: Not Active; Activity [19]: Active; Activity [20]: Active
COc1cccc(OC)c1/C=C1\CCC/C(=C\c2ccccn2)C1=O	25.98	85	
CCN(CC)c1ccc(/C=C/C(=O)/C=C/c2c(OC)cccc2OC)cc1	71.5	117	EC50 [3]: 18.1 µM; CC50 [6]: > 100 µM; EC50 [8]: 13.6 µM
COc1cccc(OC)c1/C=C/C(=O)/C=C/c1ccccn1	70.92	110	
COc1cccc(OC)c1C(=O)C1OC1c1ccc(C)cc1 (centres undefined)	35.03	62.5	
COc1cccc(OC)c1C(=O)/C=C/c1nc(C)c(C)nc1C		39.1	EC50 [3]: 7.34 µM; EC50 [4]: 1.34 µM; CC50 [6]: < 50 µM; EC50 [8]: 10.8 µM; EC50 [11]: 3.51 µM; EC50 [12]: 3.87 µM; EC50 [14]: 3.69 µM; EC50 [17]: 2.47 µM
COc1cccc(OC)c1/C=C/C(=O)/C=C/c1ccc(C(C)(C)C)cc1	72.89	86	

SMILES	inhibition (INH) [1] [%]	percent cell viability relative to control at 50 µM [2] [%]	also measured
Cc1onc(-c2ccccc2)c1C(=O)N1CCN(c2ccc([N+](=O)[O-])cc2Cl)CC1 [NUCLEOZIN]			Kd [7]: Not Active; Kd [10]: 0.014 µM; Kd [18]: Not Active
COc1ccc(/C=C/C(=O)/C=C/c2c(OC)cccc2OC)cc1-c1ccccc1	35.03	85	
COc1cccc(OC)c1/C=C/C(=O)/C=C/c1ccc(N2CCCC2)cc1	62.89	133	
COc1cccc(OC)c1/C=C/C(=O)/C=C/c1ccc(N(C)C)cc1	75.34	110	EC50 [3]: 20.9 µM; CC50 [6]: > 100 µM; EC50 [8]: 16 µM
COc1cccc(OC)c1/C=C/C(=O)/C=C/c1ccc(-c2cccnc2)cc1	25.98	111	
COc1cccc(OC)c1C(=O)N/N=C/c1ccccn1	13.78	81.9	
COc1cccc(OC)c1/C=C/C(=O)/C=C/c1ccc(-n2ccnc2)cc1	18.14	106	
COc1cccc(OC)c1C(=O)CCc1nc(C)c(C)nc1C	18.14	71	
CCC(=C/[C@H](C)C/C=C/C(C)=C/[C@@H](C)C(=O)[C@@H](C)[C@H](O)[C@@H](C)C/C(C)=C/C(=O)O)/C=C/[C@@H]1OC(=O)C=C[C@@H]1C			inhibition [16]: Active
COc1cccc(OC)c1/C=C/C(=O)/C=C/c1ccc(-n2cccn2)cc1	37.85	104	
COc1cccc(OC)c1/C=C/C(=O)/C=C/c1ccc(N2CCCCC2)cc1	60.7	110	
COc1cccc(OC)c1/C=C/C(=O)/C=C/c1ccc([N+](=O)[O-])cc1	70.62	99.5	
COc1cccc(OC)c1C(=O)C1OC1c1ccc([N+](=O)[O-])cc1 (centres undefined)	13.17	61	
CCCOc1ccc(/C=C/C(=O)/C=C/c2c(OC)cccc2OC)cc1	41.16	149	
COc1cccc(OC)c1/C=C/C(=O)/C=C/c1ccc(C)cc1	70.3	97.3	
COc1ccc(/C=C/C(=O)/C=C/c2c(OC)cccc2OC)cc1	26.89	108	
COc1cccc(OC)c1C(=O)CCc1ccc([N+](=O)[O-])cc1	2.26	61	
COc1cccc(OC)c1C(=O)C1OC1c1ccccn1 (centres undefined)	27.71	71.8	
COc1cccc(OC)c1C(=O)CCc1ccccn1	27.71	74.6	
COc1cccc(OC)c1/C=C/C(=O)/C=C/c1ccccc1N1CCOCC1	73.17	63.3	
COc1cccc(OC)c1/C=C/C(=O)/C=C/c1ccc(-c2ccccc2)c(C)c1	58.93	113	
COc1cccc(OC)c1/C=C/C(=O)/C=C/c1c(C)cc(-c2ccccc2)cc1C	27.71	108	
COc1cccc(OC)c1C(=O)N/N=C/c1nc(C)c(C)nc1C	62.26	85	
COc1cccc(OC)c1C(=O)N/N=C/c1ccc(C)cc1	47.74	61.2	
